Read-outs that look alike come from different tables or passages of the source.

The test system of one data set is L. major amastigote. Description: L. major amastigote assay. It is filed as cell-based. The settings on record: Leishmania major.
In the next data set the test system is T. cruzi. Description: T. cruzi growth inhibition. It is filed as cell-based, Trypanosoma cruzi. The settings on record: Trypanosoma cruzi.
Data set [1] relates to T. brucei brucei Lister 427. The experiment in a line: Trypanosome replication assay. It is filed as cell-based, Trypanosoma brucei brucei. The settings on record: Trypanosoma brucei, 48 h, 48 h, values ±7%.
A further data set deals with P. fal. The experiment in a line: P. fal assay of Table 13 (strain not given). Type of data set: cell-based, P. falciparum. The settings on record: Plasmodium falciparum.
A further data set deals with L. major promastigote. The experiment in a line: L. major promastigote assay. Type of data set: cell-based. The following applies: Leishmania major.
A further data set deals with HepG2 cells. Description: HepG2 cell toxicity (MTT) assay. It is filed as cell-based. The following applies: Table 13; read-out: HepG2 TC50.
Where [2] appears, read: concentration giving 50% inhibition of growth of T brucei brucei Lister 427 cells, read-out: Tbb EC50.
Setting [3] is: read-out: Tbb EC50, concentration giving 50% inhibition of growth of T brucei brucei Lister 427 cells.

As for `CN1CCCN(S(=O)(=O)c2ccc(-c3ccc4ccnc(Nc5ccc(OCc6cccc(F)c6)c(Cl)c5)c4c3)cc2)CC1` [NEU-962, N-(3-Chloro-4-((3-fluorobenzyl)oxy)phenyl)-7-(4-((4-methyl-1,4-diazepan-1-yl)sulfonyl)phenyl)isoquinolin-1-amine], the EC50 was determined as 2200 nM with L. major amastigote; 4700 nM in the data set with T. cruzi; 730 nM in data set [1] (setting [2]); 86 nM in the data set on P. fal; 1300 nM with L. major promastigote.

Consider `CN1CCCN(S(=O)(=O)c2ccc(-c3ccc4c(Nc5ccc(OCc6cccc(F)c6)c(Cl)c5)nccc4c3)cc2)CC1` [NEU-963, N-(3-Chloro-4-((3-fluorobenzyl)oxy)phenyl)-6-(4-((4-methyl-1,4-diazepan-1-yl)sulfonyl)phenyl)isoquinolin-1-amine], for which the EC50 in the data set on L. major amastigote is 4400 nM; in the data set on T. cruzi, 33000 nM; in data set [1] (setting [2]) it was 390 nM; in the data set on P. fal, 410 nM; with L. major promastigote, 440 nM.

Turning to `CN1CCCN(S(=O)(=O)c2ccc(-c3ccc4c(Nc5ccc(OCc6cccc(F)c6)c(Cl)c5)ccnc4c3)cc2)CC1` [NEU-943, N-(3-Chloro-4-((3-fluorobenzyl)oxy)phenyl)-7-(4-((4-methyl-1,4-diazepan-1-yl)sulfonyl)phenyl)quinolin-4-amine], the EC50 in the data set on L. major amastigote stood at 880 nM; in the data set with T. cruzi it was 730 nM; in data set [1] (setting [2]) it was 87 nM; in the data set on P. fal, 94 nM; in the data set on L. major promastigote, 400 nM. Moreover, the CC50 in the data set with HepG2 cells worked out at 5000 nM.

For the compound `CN1CCN(S(=O)(=O)c2ccc(-c3ccc4c(Nc5ccc(OCc6cccc(F)c6)c(Cl)c5)nncc4c3)cc2)CC1` [NEU-1041, N-(3-Chloro-4-((3-fluorobenzyl)oxy)phenyl)-6-(4-((4-methylpiperazin-1-yl)sulfonyl)phenyl)phthalazin-1-amine, Formic Acid], the EC50 was greater than 15000 nM in the data set with L. major amastigote; 18000 nM in the data set on T. cruzi; 1200 nM in data set [1] (setting [3]); 45 nM in the data set with P. fal; 1300 nM in the data set with L. major promastigote. In addition, the CC50 in the data set with HepG2 cells was greater than 15000 nM.

Regarding `Fc1cccc(COc2ccc(Nc3nncc4ccc(-c5cccc(N6CCOCC6)c5)cc34)cc2Cl)c1` [NEU-1035, N-(3-Chloro-4-((3-fluorobenzyl)oxy)phenyl)-7-(3-morpholinophenyl)phthalazin-1-amine], the EC50 in the data set with L. major amastigote was 1700 nM; with T. cruzi, greater than 50000 nM; in data set [1] (setting [2]), 290 nM; in the data set with P. fal, 110 nM; in the data set with L. major promastigote it was greater than 15000 nM.

As to `Fc1cccc(COc2ccc(Nc3ccnc4cc(-c5cccc(N6CCOCC6)c5)ccc34)cc2Cl)c1` [NEU-942, N-(3-Chloro-4-((3-fluorobenzyl)oxy)phenyl)-7-(3-morpholinophenyl)quinolin-4-amine], the EC50 was greater than 3000 nM in the data set on L. major amastigote; 2700 nM in the data set on T. cruzi; 1200 nM in data set [1] (setting [2]); 61 nM in the data set on P. fal; 1400 nM with L. major promastigote. Besides, the CC50 in the data set with HepG2 cells was greater than 5000 nM.

For `CN1CCN(S(=O)(=O)c2ccc(-c3ccc4ccnc(Nc5ccc(OCc6cccc(F)c6)c(Cl)c5)c4c3)cc2)CC1` [NEU-950, N-(3-Chloro-4-((3-fluorobenzyl)oxy)phenyl)-7-(4-((4-methylpiperazin-1-yl)sulfonyl)phenyl)isoquinolin-1-amine], the EC50 in the data set with L. major amastigote was greater than 15000 nM; with T. cruzi, greater than 50000 nM; in data set [1] (setting [2]), 1800 nM; with P. fal it was 40 nM; in the data set with L. major promastigote, greater than 15000 nM.

`O=S(=O)(c1ccc(-c2ccc3c(Nc4ccc(OCc5ccccc5)c(Cl)c4)cnnc3c2)cc1)N1CCOCC1` [NEU-1015, N-(4-(Benzyloxy)-3-chlorophenyl)-7-(4-(morpholinosulfonyl)phenyl)cinnolin-4-amine]: the EC50 with L. major amastigote was greater than 15000 nM; in the data set with T. cruzi, 15000 nM; in data set [1] (setting [2]) it was 1200 nM; with P. fal, 150 nM; with L. major promastigote, greater than 15000 nM. In the data set with HepG2 cells, the CC50 was greater than 11000 nM.

Regarding `CN1CCCN(S(=O)(=O)c2ccc(-c3ccc4nccc(Nc5ccc(OCc6cccc(F)c6)c(Cl)c5)c4c3)cc2)CC1` [NEU-958, N-(3-Chloro-4-((3-fluorobenzyl)oxy)phenyl)-6-(4-((4-methyl-1,4-diazepan-1-yl)sulfonyl)phenyl)quinolin-4-amine], the EC50 in the data set on L. major amastigote came out at 2300 nM; in the data set on T. cruzi, 930 nM; in data set [1] (setting [2]), 140 nM; in the data set on P. fal, 86 nM; in the data set with L. major promastigote, 400 nM. In the data set on HepG2 cells, the CC50 came to 4300 nM.

For `O=S(=O)(c1ccc(-c2ccc3cnnc(Nc4ccc(OCc5ccccc5)c(Cl)c4)c3c2)cc1)N1CCOCC1` [NEU-1036, N-(4-(Benzyloxy)-3-chlorophenyl)-7-(4-(morpholinosulfonyl)phenyl)phthalazin-1-amine], the EC50 with L. major amastigote is greater than 4000 nM; in the data set on T. cruzi, greater than 50000 nM; in data set [1] (setting [2]) it was 860 nM; in the data set with P. fal, 540 nM; with L. major promastigote it was greater than 3400 nM. Further, the CC50 in the data set with HepG2 cells was greater than 5200 nM.

`Fc1cccc(COc2ccc(Nc3cnnc4ccc(-c5cccc(N6CCOCC6)c5)cc34)cc2Cl)c1` [NEU-1012, N-(3-Chloro-4-((3-fluorobenzyl)oxy)phenyl)-6-(3-morpholinophenyl)cinnolin-4-amine]: the EC50 is greater than 15000 nM in the data set on L. major amastigote; greater than 50000 nM in the data set with T. cruzi; 1100 nM in data set [1] (setting [2]); 540 nM in the data set with P. fal; greater than 15000 nM with L. major promastigote. In the data set on HepG2 cells, the CC50 was greater than 15000 nM.

For `CN1CCN(S(=O)(=O)c2ccc(-c3ccc4c(Nc5ccc(OCc6cccc(F)c6)c(Cl)c5)cnnc4c3)cc2)CC1` [NEU-1016, N-(3-Chloro-4-((3-fluorobenzyl)oxy)phenyl)-7-(4-((4-methylpiperazin-1-yl)sulfonyl)phenyl)cinnolin-4-amine], the EC50 is 2000 nM in the data set with L. major amastigote; 3100 nM with T. cruzi; 1000 nM in data set [1] (setting [2]); 14 nM in the data set on P. fal; 5700 nM in the data set on L. major promastigote.

`CN1CCCN(S(=O)(=O)c2ccc(-c3ccc4nncc(Nc5ccc(OCc6cccc(F)c6)c(Cl)c5)c4c3)cc2)CC1` [NEU-1013, N-(3-Chloro-4-((3-fluorobenzyl)oxy)phenyl)-6-(4-((4-methyl-1,4-diazepan-1-yl)sulfonyl)phenyl)cinnolin-4-amine]: the EC50 in the data set on L. major amastigote stood at 1060 nM; in the data set on T. cruzi it was 2200 nM; in data set [1] (setting [2]), 580 nM; with P. fal, 27 nM; in the data set on L. major promastigote, 4100 nM. Moreover, in the data set with HepG2 cells, the CC50 is 7300 nM.

With `Fc1cccc(COc2ccc(Nc3ccnc4ccc(-c5cccc(N6CCOCC6)c5)cc34)cc2Cl)c1` [NEU-959, N-(3-Chloro-4-((3-fluorobenzyl)oxy)phenyl)-6-(3-morpholinophenyl)quinolin-4-amine], the EC50 in the data set on L. major amastigote was found to be 4000 nM; with T. cruzi, 6600 nM; in data set [1] (setting [2]), 1000 nM; with P. fal, 35 nM; in the data set on L. major promastigote, 900 nM. The CC50 with HepG2 cells came out at 10000 nM.

Regarding `CN1CCN(S(=O)(=O)c2ccc(-c3ccc4nncc(Nc5ccc(OCc6cccc(F)c6)c(Cl)c5)c4c3)cc2)CC1` [NEU-1003, N-(3-Chloro-4-((3-fluorobenzyl)oxy)phenyl)-6-(4-((4-methylpiperazin-1-yl)sulfonyl)phenyl)cinnolin-4-amine], the EC50 in the data set on L. major amastigote was 1900 nM; in the data set on T. cruzi it was greater than 50000 nM; in data set [1] (setting [2]), 980 nM; in the data set with P. fal, 130 nM; in the data set on L. major promastigote, greater than 15000 nM.

`CN1CCCN(S(=O)(=O)c2ccc(-c3ccc4cnnc(Nc5ccc(OCc6cccc(F)c6)c(Cl)c5)c4c3)cc2)CC1` [NEU-1044, N-(3-Chloro-4-((3-fluorobenzyl)oxy)phenyl)-7-(4-((4-methyl-1,4-diazepan-1-yl)sulfonyl)phenyl)phthalazin-1-amine, Formic Acid]: the EC50 in the data set on L. major amastigote was 5600 nM; in the data set with T. cruzi, 17000 nM; in data set [1] (setting [3]), 620 nM; in the data set with P. fal, 94 nM; in the data set with L. major promastigote, greater than 15000 nM. For the same compound, the CC50 in the data set with HepG2 cells is 14000 nM.

For `CN1CCN(S(=O)(=O)c2ccc(-c3ccc4cnnc(Nc5ccc(OCc6cccc(F)c6)c(Cl)c5)c4c3)cc2)CC1` [NEU-1043, N-(3-Chloro-4-((3-fluorobenzyl)oxy)phenyl)-7-(4-((4-methylpiperazin-1-yl)sulfonyl)phenyl)phthalazin-1-amine, Formic Acid], the EC50 was greater than 4000 nM with L. major amastigote; greater than 50000 nM in the data set on T. cruzi; 2000 nM in data set [1] (setting [3]); 130 nM in the data set with P. fal; greater than 3200 nM in the data set on L. major promastigote. In addition, the CC50 with HepG2 cells was greater than 5000 nM.

On to `Fc1cccc(COc2ccc(Nc3nncc4cc(-c5cccc(N6CCOCC6)c5)ccc34)cc2Cl)c1` [NEU-1037, N-(3-Chloro-4-((3-fluorobenzyl)oxy)phenyl)-6-(3-morpholinophenyl)phthalazin-1-amine], for which the EC50 in the data set on L. major amastigote is 2200 nM; in the data set with T. cruzi it was greater than 50000 nM; in data set [1] (setting [2]) it was 1400 nM; in the data set on P. fal, 240 nM; with L. major promastigote, greater than 15000 nM.

Take `CN1CCN(S(=O)(=O)c2ccc(-c3ccc4c(Nc5ccc(OCc6cccc(F)c6)c(Cl)c5)nccc4c3)cc2)CC1` [NEU-951, N-(3-Chloro-4-((3-fluorobenzyl)oxy)phenyl)-6-(4-((4-methylpiperazin-1-yl)sulfonyl)phenyl)isoquinolin-1-amine]: the EC50 was greater than 15000 nM with L. major amastigote; greater than 50000 nM with T. cruzi; 100 nM in data set [1] (setting [2]); 110 nM in the data set on P. fal; 2700 nM in the data set on L. major promastigote.

(Values after patent publication US20150259331A1, “PROTOZOAN PARASITE GROWTH INHIBITORS” (Northeastern University, priority 2014, published 2015).)
